Data as given in ChEMBL document CHEMBL3739304, “Non-nucleoside anti-HBV agents: advances in structural optimization and mechanism of action investigations” (Medchemcomm, 2015).

Columns and labels:
[1] = Selectivity index, ratio of cytotoxicity against human HepG2.2.15 cells to IC50 for HBV antigen secretion in HepG2.2.15 cells; assay type: toxicity, cell-based; details: read-out: Selectivity Index
[2] = Selectivity index, ratio of cytotoxicity against human HepG2.2.15 cells to IC50 for HBV DNA replication in HepG2.2.15 cells; assay type: toxicity, cell-based; details: read-out: Selectivity Index
Hepatitis B virus [3] = assay: Inhibition of HBV antigen secretion in HepG2.2.15 cells; assay type: functional, organism-based
Hepatitis B virus [4] = assay: Inhibition of HBV DNA replication in HepG2.2.15 cells; assay type: functional, organism-based
[5] = Cytotoxicity against mouse AML-12 cells after 48 hrs by MTT assay; assay type: cell-based
[6] = Cytotoxicity against human HepDES19 cells after 48 hrs by MTT assay; assay type: cell-based
Hepatitis B virus [7] = assay: Inhibition of HBV DNA replication in AML-12 cells after 48 hrs by dot blot analysis; assay type: functional, organism-based; details: AML12, 48 h
Hepatitis B virus [8] = assay: Inhibition of HBV DNA replication in HepDES19 cells after 48 hrs by dot blot analysis; assay type: functional, organism-based; details: HepDES19, 48 h
Hepatitis B virus [9] = assay: Inhibition of HBV antigen secretion in HepDE19 cell after 7 days by ELISA; assay type: functional, organism-based; details: HepDE19, 168 h
[10] = Cytotoxicity against human HepDE19 cells after 7 days by MTT assay; assay type: cell-based
Hepatitis B virus [11] = assay: Inhibition of HBV DNA replication; assay type: functional, organism-based
Hepatitis B virus [12] = assay: Inhibition of HBV antigen secretion; assay type: functional, organism-based
Hepatitis B virus [13] = assay: Inhibition of HBV DNA replication in HepG2 cells by southern blot analysis; assay type: functional, organism-based
[14] = Cytotoxicity against human HepG2.2.15 cells assessed as cell viability; assay type: cell-based, HepG2 2.2.15; details: read-out: TC50 (the source's name)
Hepatitis B virus [15] = assay: Inhibition of HBV DNA replication in HepAD38 cells; assay type: functional, organism-based
[16] = Cytotoxicity against human HepAD38 cells; assay type: cell-based; details: read-out: TC50 (the source's name)
[17] = Ratio of CC50 for human HepG2.2.15 cells to IC50 for HBV DNA replication in HepG2.2.15 cells; design: species or system HepG2 2.2.15
Hepatitis B virus [18] = assay: Inhibition of HBV virions secretion; assay type: functional, organism-based
[19] = Cytotoxicity against human HuH7 cells; assay type: cell-based, Huh-7
Hepatitis B virus [20] = assay: Inhibition of HBV in Huh7 cells by ELISA; assay type: functional, organism-based; details: Huh-7

CCOC(=O)c1cc2cc(OC)c(O)c(CN3C=NCC3)c2nc1C[S+]([O-])c1ccc(F)c(F)c1 (stereo unspecified) showed a selectivity ratio [1] of 11.3, a selectivity ratio [2] of 61.6 and an IC50 (Hepatitis B virus [3]) of 14.2 µM. The IC50 (Hepatitis B virus [4]) was 2.6 µM.

In the case of CCC(C)NS(=O)(=O)c1ccc(F)c(C(=O)NCc2ccc(F)c(F)c2)c1 (stereo unspecified), the CC50 at 48 h [5] is reported as greater than 50 µM, the CC50 at 48 h [6] is reported as greater than 50 µM and the EC50 (Hepatitis B virus [7]) is reported as 0.3 µM. It also gave an EC50 (Hepatitis B virus [8]) of 0.1 µM.

For Cc1nc2cc(NC(=O)c3ccc(S(=O)(=O)N(C)Cc4ccccc4)cc3)ccc2s1, the EC50 (Hepatitis B virus [9]) was 0.35 µM and the CC50 at 168 h [10] was greater than 2.57 µM.

Molecule O=C(NCc1ccc(F)c(F)c1)c1cc(S(=O)(=O)NC2CCCC2)ccc1F has a CC50 at 48 h [5] greater than 50 µM, a CC50 at 48 h [6] greater than 50 µM and an EC50 (Hepatitis B virus [7]) of 0.39 µM. It also gave an EC50 (Hepatitis B virus [8]) of 0.14 µM.

CCCCC/N=C(\c1ccc(=O)n(CCCCC)c1)c1ccc(OC)cc1O gave an IC50 (Hepatitis B virus [11]) of 30 µM and an IC50 (Hepatitis B virus [12]) of 5 µM.

For COc1cc2nc3c(cc2c(Cn2ccnc2C)c1O)CSc1cc(F)ccc1-3, the selectivity ratio [2] was 60.3 and the IC50 (Hepatitis B virus [4]) was 1.7 µM.

CCOC(=O)C1=C(CN2CCOCC2)NC(c2nccs2)=NC1c1ccc(F)cc1Br (stereo unspecified) showed an IC50 (Hepatitis B virus [13]) of 0.012 µM.

Work on O=C(CN(c1cc(C(F)(F)F)ccc1Cl)S(=O)(=O)c1ccccc1)NCc1ccncc1 yielded an EC50 (Hepatitis B virus [9]) of 4.55 µM and a CC50 at 168 h [10] greater than 50 µM.

CCOC(=O)C1=C(C)NC(c2ncccc2F)=NC1c1ccc(F)cc1Cl (stereo unspecified) gave an IC50 (Hepatitis B virus [4]) of 0.15 µM and a CC50 [14] of 50 µM.

With CC(C)Cc1sc(-c2nccs2)nc1C(=O)NCc1ccc(F)cc1 the IC50 (Hepatitis B virus [11]) was 0.14 µM.

Molecule O=C(NCc1ccccc1)c1ccc(Cl)c(S(=O)(=O)N2CCCCCC2)c1 has a CC50 at 48 h [5] greater than 50 µM, a CC50 at 48 h [6] greater than 50 µM and an EC50 (Hepatitis B virus [7]) of 1.7 µM. For the same molecule, the EC50 (Hepatitis B virus [8]) was 1.6 µM.

Work on CCOC(=O)c1cc2cc(OC)c(O)c(CN3CCCC3)c2nc1CSc1ccccc1 yielded a selectivity ratio [2] of 2.8 and an IC50 (Hepatitis B virus [4]) of 36.8 µM.

O=C(N/C(C(=O)N1CCCCC1)=C(/Cl)c1ccccc1)c1ccccc1 showed an EC50 (Hepatitis B virus [15]) of 1.2 µM, an EC90 (Hepatitis B virus [15]) of 13 µM and a CC50 [16] greater than 81 µM.

With CN(C)C(=O)c1ccc2c(c1)nc(-c1nccs1)n2C the “Ratio CC50/IC50” value [17] was greater than 90 and the IC50 (Hepatitis B virus [4]) was 1.1 µM.

Clc1cc2nc(N3CCN(c4ccccn4)CC3)[nH]c2cc1Cl showed an EC50 (Hepatitis B virus [18]) of 0.6 µM and an EC50 (Hepatitis B virus [12]) of 1.5 µM.

Work on COc1ccccc1/C(Br)=C(\NC(=O)c1ccc([N+](=O)[O-])cc1)C(=O)N1CCCCC1 yielded an EC50 (Hepatitis B virus [15]) of 0.13 µM, an EC90 (Hepatitis B virus [15]) of 0.92 µM and a CC50 [16] greater than 61 µM.

With O=C1OC(OCc2ccccc2)=N/C1=C\c1ccccc1 the CC50 [19] was greater than 50 µM and the EC50 (Hepatitis B virus [20]) was 5.4 µM.

CCOC(=O)C1=C(C)NC(c2nccs2)=N[C@H]1c1ccc(F)cc1Cl showed an IC50 (Hepatitis B virus [4]) of 0.03 µM and a CC50 [14] of 25 µM.

With Cc1cc(C)n2[nH]c(=S)nc2n1 the CC50 [19] was greater than 50 µM and the EC50 (Hepatitis B virus [20]) was 0.12 µM.
